According to patent EP4603105A1, “PHARMACEUTICAL COMPOSITION CONTAINING CYCLIC COMPOUND HAVING SELECTIVE KRAS INHIBITORY EFFECT AGAINST HRAS AND NRAS” (CHUGAI SEIYAKU KABUSHIKI KAISHA, priority 2022, dated 2024):
Like-named read-outs stand apart in the source and are kept apart here.

Legend:
[1] = test system: human lung cancer strain NCI-H441; experiment: NCI-H441 cell proliferation inhibitory activity (CellTiter-Glo, 4 days); type: cell-based; settings: read-out: NCl-H441 IC50
Outline: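 Proliferation was scored by […] measured after the reagent was added to cultures kept at 37°C in 5% carbon dioxide.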

[2] = target: HRAS wild-type protein (Homo sapiens, UniProt P01112); experiment: Binding to HRAS by surface plasmon resonance (SPR), KD and KD ratio to KRAS
Outline: (§1)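 Single-cycle kinetics on GDP-loaded biotin-Avi RAS captured to ~100–300 RU; 75 s ascending injections, 100 µL/min, 30°C. HBS pH 7.4 + 10 mM MgCl2/10 µM GDP/4% DMSO. 1:1 fit, KD.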

[3] = target: GDP-bound NRAS wild-type protein (Homo sapiens, UniProt P01111); experiment: Binding to NRAS by surface plasmon resonance (SPR), KD and KD ratio to KRAS
Outline: as §1

[4] = target: GDP-bound KRAS wild-type protein (Homo sapiens, UniProt P01116); experiment: Binding to KRAS by surface plasmon resonance (SPR), dissociation constant KD
Outline: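 SPR, 30°C: Avi-biotin RAS·GDP captured via Biotin CAPture (~100–300 RU); running buffer HBS pH 7.4, 1 mM DTT, 10 mM MgCl2, 0.01% Tween 20, 10 µM GDP, 4% DMSO. Single-cycle kinetics, 100 µL/min, 75 s injections; 1:1 model → KD.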

[5] = 50% proliferation inhibitory concentration, four days
[6] = ratio of KD with respect to HRAS wild-type protein to KD with respect to KRAS
[7] = ratio of KD with respect to GDP-bound NRAS wild-type protein to KD with respect to KRAS
[8] = Single Cycle Kinetics, 1:1 binding model
[9] = ratio of KD for HRAS wild-type protein to KD for KRAS
[10] = ratio of KD for GDP-bound NRAS wild-type protein to KD for KRAS

Chain of GDP-bound KRAS wild-type protein (P01116 1-188 isoform P01116-2): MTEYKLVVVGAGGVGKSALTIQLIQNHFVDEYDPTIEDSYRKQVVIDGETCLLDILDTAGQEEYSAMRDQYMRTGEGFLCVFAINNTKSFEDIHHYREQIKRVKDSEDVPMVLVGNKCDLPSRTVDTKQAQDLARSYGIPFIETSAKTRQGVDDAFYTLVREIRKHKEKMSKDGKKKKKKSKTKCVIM
Chain of GDP-bound NRAS wild-type protein (P01111 whole entry): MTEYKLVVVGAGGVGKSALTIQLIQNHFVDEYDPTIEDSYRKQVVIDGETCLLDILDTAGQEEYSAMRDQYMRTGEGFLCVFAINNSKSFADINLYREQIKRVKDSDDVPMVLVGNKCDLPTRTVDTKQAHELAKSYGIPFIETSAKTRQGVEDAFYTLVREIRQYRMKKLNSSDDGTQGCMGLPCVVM
Chain of HRAS wild-type protein (P01112 whole entry): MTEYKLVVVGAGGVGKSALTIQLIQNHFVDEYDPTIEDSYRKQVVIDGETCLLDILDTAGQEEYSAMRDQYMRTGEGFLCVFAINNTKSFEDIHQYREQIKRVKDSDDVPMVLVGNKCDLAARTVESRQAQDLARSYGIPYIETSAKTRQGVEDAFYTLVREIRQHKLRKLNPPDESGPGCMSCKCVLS

| IC50 [1, 5] | Kd [4, 8] | IC50 ([1]; NCI-H441 cells, 4 days) | Kd ([4]; Single Cycle Kinetics) | Kd ([4]; 1:1 binding model) | Compound | HRAS /KRAS [2, 6] | NRAS /KRAS [3, 7] | HRAS /KRAS [2, 9] | NRAS /KRAS [3, 10] |
| --- | --- | --- | --- | --- | --- | --- | --- | --- | --- |
| 92.5 nM | 1.1 nM | – | – | – | CCO[C@@H]1C[C@H]2C(=O)NC3(CCC3)C(=O)N(C)[C@@H](C(CC)CC)C(=O)N(C)[C@H](C(=O)N(C)C)CC(=O)N(C)[C@@H](CC(C)C)C(=O)N[C@@H]([C@@H](C)CC)C(=O)N(C)CC(=O)N(C)[C@H]3C/C=C\CCN(C3=O)[C@@H](Cc3ccc(C(F)(F)F)cc3)C(=O)N(C)CC(=O)N[C@@H](CCc3ccc4sccc4c3)C(=O)N2C1 [PP1225] | A (a compound having 10 or more and less than 20 is denoted as A) | AA (a compound having 20 or more is denoted as AA) | – | – |
| – | – | 43.3 nM | 0.51 nM | – | CCCOC[C@@H]1NC(=O)C[C@@H](C(=O)N(C)CCC)N(C)C(=O)[C@H](C2CCCC2)N(C)C(=O)C2(CC(C)(C)C2)NC(=O)[C@@H]2C[C@@H](OCC)CN2C(=O)[C@H](CCc2ccc(C(F)(F)F)c(Cl)c2)NC(=O)CN(C)C(=O)[C@H](Cc2ccc(C(F)(F)F)cc2)N2CC/C=C\C[C@@H](C2=O)N(C)C(=O)CN(C)C(=O)[C@H]([C@@H](C)CC)NC1=O [PP3450] | – | – | A (a compound having 10 or more and less than 20 is denoted as A) | A (a compound having 10 or more and less than 20 is denoted as A) |
| 3.6 nM | 0.017 nM | – | – | – | CCO[C@@H]1C[C@H]2C(=O)NC3(CCCC3)C(=O)N(C)[C@@H](C3CCCC3)C(=O)N(C)[C@H](C(=O)N(C)C)CC(=O)N(C)[C@@H](CC)C(=O)N[C@@H]([C@@H](C)CC)C(=O)N(C)CC(=O)N(C)[C@H]3C[C@H](C)C(C)CN(C3=O)[C@@H](Cc3ccc(C(F)(F)F)cc3)C(=O)N(C)CC(=O)N[C@@H](CCc3cc(F)c(C(F)(F)F)c(F)c3)C(=O)N2C1 (stereo partly drawn) [PP1347] | B (a compound having 3 or more and less than 10 is denoted as B) | B (a compound having 3 or more and less than 10 is denoted as B) | – | – |
| 5.8 nM | 0.087 nM | – | – | – | CCO[C@@H]1C[C@H]2C(=O)NC3(CCCC3)C(=O)N(C)[C@@H](C3CCCC3)C(=O)N(C)[C@H](C(=O)N3CCOCC3)CC(=O)N(C)[C@@H](CC)C(=O)N[C@@H]([C@@H](C)CC)C(=O)N(C)CC(=O)N(C)[C@H]3CC[C@@H](C)CN(C3=O)[C@@H](Cc3ccc(C(F)(F)F)cc3)C(=O)N(C)CC(=O)N[C@@H](CCc3ccc(C(F)(F)F)c(Cl)c3)C(=O)N2C1 [PP1377] | B (a compound having 3 or more and less than 10 is denoted as B) | B (a compound having 3 or more and less than 10 is denoted as B) | – | – |
| – | – | 54.9 nM | 1.4 nM | – | C=CC[C@H]1C(=O)N(C)[C@H](C(=O)N(C)C)CC(=O)N(C)[C@@H](CC(C)C)C(=O)N[C@@H]([C@@H](C)CC)C(=O)N(C)CC(=O)N(C)[C@H]2C/C=C\CCN(C2=O)[C@@H](Cc2ccc(C)cc2)C(=O)N(C)CC(=O)N[C@@H](CCc2ccc(C(F)(F)F)c(OC)c2)C(=O)N2C[C@H](OCC)C[C@H]2C(=O)N(C)C2(CCC2)C(=O)N1C [PP3344] | – | – | B (a compound having 3 or more and less than 10 is denoted as B) | A (a compound having 10 or more and less than 20 is denoted as A) |
| – | – | 124 nM | – | 2.9 nM | CCC[C@H]1C(=O)N[C@@H](CC(C)C)C(=O)N(CC)CC(=O)N(C)[C@H]2C/C=C\CCN(C2=O)[C@@H](Cc2ccc(C)cc2)C(=O)N(C)CC(=O)N[C@@H](CCc2cc(F)c(C(F)(F)F)c(F)c2)C(=O)N2C[C@H](OCC)C[C@H]2C(=O)NC2(CC(C)(C)C2)C(=O)N(C)[C@@H](C2CCCC2)C(=O)N(C)[C@H](C(=O)N(C)C)CC(=O)N1C [PP2516] | – | – | B (a compound having 3 or more and less than 10 is denoted as B) | A (a compound having 10 or more and less than 20 is denoted as A) |
